{"source": "patent US20060069132A1", "about": "“Azolecarboxamide herbicides” (priority 2004, published 2006)", "test_system": "large crabgrass", "assay": "Test A pre-/postemergence herbicide test", "type": "in vivo, Digitaria sanguinalis", "conditions": "for pest or weed control at 500 g/ha / pest or weed control at 2000 g/ha: Digitaria sanguinalis, 240 h", "how_it_was_run": "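Greenhouse injury scoring (0–100, complete control = 100) at approximately ten days follows simultaneous pre- and postemergence application. Soil received a directed spray after seeding; seedlings of 2–10 cm at the one- to two-leaf stage were sprayed to runoff.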", "key": {"[1]": {"conditions": "Postemergence, 500 g ai/ha, 0 to 100 scale, 0 no effect, 100 complete control"}, "[2]": {"conditions": "Postemergence, 2000 g ai/ha, 0 to 100 scale, 0 no effect, 100 complete control"}, "[3]": {"conditions": "Preemergence, 500 g ai/ha, visual rating, 0 to 100 scale (0 no effect, 100 complete control)"}, "[4]": {"conditions": "Preemergence, 2000 g ai/ha, 0 to 100 scale, 0 no effect, 100 complete control"}, "[5]": {"conditions": "post-emergence, Postemergence, 2000 g ai/ha, 0 to 100 scale, 0 no effect, 100 complete control, read-out: Plant response rating, Crabgrass, Large"}, "[6]": {"conditions": "pre-emergence, Preemergence, 500 g ai/ha, visual rating, 0 to 100 scale (0 no effect, 100 complete control), read-out: Crabgrass, Large plant response rating"}, "[7]": {"conditions": "Preemergence, 2000 g ai/ha, visual rating, 0 to 100 scale (0 no effect, 100 complete control)"}, "[8]": {"conditions": "post-emergence, Postemergence, 500 g ai/ha, 0 to 100 scale, 0 no effect, 100 complete control, read-out: Crabgrass, Large plant response rating"}, "[9]": {"conditions": "pre-emergence, Preemergence, 2000 g ai/ha, visual rating, 0 to 100 scale (0 no effect, 100 complete control), read-out: Crabgrass, Large plant response rating"}, "[10]": {"conditions": "preemergence, 500 g ai/ha, visual injury, 0 to 100 scale (0 no effect, 100 complete control)"}}, "note": "Where two headings read alike, the source gives them in different places.", "data": [{"smiles": "CCCCn1nc(C(C)(C)C)cc1C(=O)Nc1cccc(C(=O)NCC)c1", "note": "[Compound 41]", "values": [{"measurement": "Plant response rating, Crabgrass, Large", "setting": "[1]", "value": 20}, {"measurement": "Plant response rating, Crabgrass, Large", "setting": "[2]", "value": 60}, {"measurement": "Crabgrass, Large plant response rating", "setting": "[3]", "value": 40}, {"measurement": "Crabgrass, Large plant response rating", "setting": "[4]", "value": 80}]}, {"smiles": "CCn1nc(C(C)(C)C)cc1C(=O)Nc1cccc(C(=O)NCC(F)(F)F)c1", "note": "[Compound 43, 3-(1,1-dimethylethyl)-1-ethyl-N-[3-[[(2,2,2-trifluoroethyl)amino]carbonyl]-phenyl]-1H-pyrazole-5-carboxamide]", "values": [{"measurement": "pest or weed control at 500 g/ha", "setting": "post-emergence, Postemergence, 500 g ai/ha, 0 to 100 scale, 0 no effect, 100 complete control, read-out: Plant response rating, Crabgrass, Large", "value": 65, "unit": "%"}, {"measurement": "pest or weed control at 2000 g/ha", "setting": "[5]", "value": 90, "unit": "%"}, {"measurement": "pest or weed control at 500 g/ha", "setting": "[6]", "value": 75, "unit": "%"}, {"measurement": "pest or weed control at 2000 g/ha", "setting": "pre-emergence, Preemergence, 2000 g ai/ha, 0 to 100 scale, 0 no effect, 100 complete control, read-out: Crabgrass, Large plant response rating", "value": 90, "unit": "%"}]}, {"smiles": "CCn1nc(C(C)(C)C)cc1C(=O)Nc1cccc(C(=O)NOC)c1", "note": "[Compound 67]", "values": [{"measurement": "Plant response rating, Crabgrass, Large", "setting": "[1]", "value": 20}, {"measurement": "Plant response rating, Crabgrass, Large", "setting": "[2]", "value": 20}, {"measurement": "Crabgrass, Large plant response rating", "setting": "[3]", "value": 15}, {"measurement": "Crabgrass, Large plant response rating", "setting": "[4]", "value": 55}]}, {"smiles": "CCOC(=O)c1cccc(NC(=O)c2cc(C(C)(C)C)nn2CCF)c1", "note": "[Compound 79]", "values": [{"measurement": "Plant response rating, Crabgrass, Large", "setting": "[1]", "value": 20}, {"measurement": "Plant response rating, Crabgrass, Large", "setting": "[2]", "value": 55}, {"measurement": "Crabgrass, Large plant response rating", "setting": "[3]", "value": 50}, {"measurement": "Crabgrass, Large plant response rating", "setting": "[4]", "value": 55}]}, {"smiles": "CC(=NO)c1cccc(NC(=O)c2cc(C(C)(C)C)nn2C)c1", "note": "[Compound 102]", "values": [{"measurement": "Crabgrass, Large plant response rating", "setting": "[1]", "value": 60}, {"measurement": "Plant response rating, Crabgrass, Large", "setting": "[2]", "value": 80}, {"measurement": "Crabgrass, Large plant response rating", "setting": "[3]", "value": 95}, {"measurement": "Crabgrass, Large plant response rating", "setting": "[7]", "value": 100}]}, {"smiles": "CCn1nc(C(C)(C)C)cc1C(=O)Nc1cccc(C(C)=NO)c1", "note": "[Compound 108]", "values": [{"measurement": "Crabgrass, Large plant response rating", "setting": "[1]", "value": 65}, {"measurement": "Plant response rating, Crabgrass, Large", "setting": "[2]", "value": 85}, {"measurement": "Crabgrass, Large plant response rating", "setting": "[3]", "value": 85}, {"measurement": "Crabgrass, Large plant response rating", "setting": "[7]", "value": 100}]}, {"smiles": "C=CCn1nc(C(C)(C)C)cc1C(=O)Nc1cccc(C(C)=NO)c1", "note": "[Compound 117]", "values": [{"measurement": "Crabgrass, Large plant response rating", "setting": "[1]", "value": 40}, {"measurement": "Plant response rating, Crabgrass, Large", "setting": "[2]", "value": 65}, {"measurement": "Crabgrass, Large plant response rating", "setting": "[3]", "value": 45}, {"measurement": "Crabgrass, Large plant response rating", "setting": "[7]", "value": 75}]}, {"smiles": "CCn1nc(C(C)(C)C)cc1C(=O)Nc1cccc(S(=O)(=O)C(F)(F)F)c1", "note": "[Compound 134]", "values": [{"measurement": "Crabgrass, Large plant response rating", "setting": "Postemergence, 250 g ai/ha, 0 to 100 scale, 0 no effect, 100 complete control", "value": 20}, {"measurement": "Plant response rating, Crabgrass, Large", "setting": "Postemergence, 1000 g ai/ha, 0 to 100 scale, 0 no effect, 100 complete control", "value": 35}, {"measurement": "Crabgrass, Large plant response rating", "setting": "Preemergence, 1000 g ai/ha, visual rating, 0 to 100 scale (0 no effect, 100 complete control)", "value": 95}, {"measurement": "Crabgrass, Large plant response rating", "setting": "preemergence, 250 g ai/ha, visual injury, 0 to 100 scale (0 no effect, 100 complete control)", "value": 35}]}, {"smiles": "CCn1nc(C(C)(C)C)cc1C(=O)Nc1cccc(C(=O)OC)n1", "note": "[Compound 143, methyl 6-[[[3-(1,1-dimethylethyl)-1-ethyl-1H-pyrazol-5-yl]carbonyl]amino]-2-pyridinecarboxylate]", "values": [{"measurement": "pest or weed control at 500 g/ha", "setting": "[8]", "value": 20, "unit": "%"}, {"measurement": "pest or weed control at 2000 g/ha", "setting": "[5]", "value": 30, "unit": "%"}, {"measurement": "pest or weed control at 500 g/ha", "setting": "[6]", "value": 0, "unit": "%"}, {"measurement": "pest or weed control at 2000 g/ha", "setting": "[9]", "value": 15, "unit": "%"}]}, {"smiles": "CCN(CC)C(=O)c1cccc(NC(=O)c2cc(C(C)(C)C)nn2CC)n1", "note": "[Compound 145]", "values": [{"measurement": "Crabgrass, Large plant response rating", "setting": "[1]", "value": 30}, {"measurement": "Plant response rating, Crabgrass, Large", "setting": "[2]", "value": 85}, {"measurement": "Crabgrass, Large plant response rating", "setting": "[3]", "value": 70}, {"measurement": "Crabgrass, Large plant response rating", "setting": "[7]", "value": 90}]}, {"smiles": "CCNC(=O)c1cc(C)nc(NC(=O)c2cc(C(C)(C)C)nn2CC)c1", "note": "[Compound 149]", "values": [{"measurement": "Crabgrass, Large plant response rating", "setting": "[1]", "value": 40}, {"measurement": "Plant response rating, Crabgrass, Large", "setting": "[2]", "value": 75}, {"measurement": "Crabgrass, Large plant response rating", "setting": "[3]", "value": 95}, {"measurement": "Crabgrass, Large plant response rating", "setting": "[7]", "value": 100}]}, {"smiles": "CCn1nc(C(C)(C)C)cc1C(=O)Nc1cc(C(=O)OC)ccn1", "note": "[Compound 151, methyl 2-[[[3-(1,1-dimethylethyl)-1-ethyl-1H-pyrazol-5-yl]carbonyl]amino]-4-pyridinecarboxylate]", "values": [{"measurement": "pest or weed control at 500 g/ha", "setting": "[8]", "value": 5, "unit": "%"}, {"measurement": "pest or weed control at 2000 g/ha", "setting": "[5]", "value": 10, "unit": "%"}, {"measurement": "pest or weed control at 500 g/ha", "setting": "[6]", "value": 0, "unit": "%"}, {"measurement": "pest or weed control at 2000 g/ha", "setting": "[9]", "value": 0, "unit": "%"}]}, {"smiles": "C=CCNC(=O)c1cccc(NC(=O)c2sc(C(C)(C)C)nc2C)c1", "note": "[Compound 202]", "values": [{"measurement": "Crabgrass, Large plant response rating", "setting": "[1]", "value": 30}, {"measurement": "Plant response rating, Crabgrass, Large", "setting": "[2]", "value": 65}, {"measurement": "Crabgrass, Large plant response rating", "setting": "[7]", "value": 100}, {"measurement": "Crabgrass, Large plant response rating", "setting": "[10]", "value": 85}]}, {"smiles": "CCc1nc(C(C)(C)C)sc1C(=O)Nc1cccc(C(=O)NCC2CC2)n1", "note": "[Compound 215]", "values": [{"measurement": "Crabgrass, Large plant response rating", "setting": "[1]", "value": 20}, {"measurement": "Plant response rating, Crabgrass, Large", "setting": "[2]", "value": 30}, {"measurement": "Crabgrass, Large plant response rating", "setting": "[7]", "value": 55}, {"measurement": "Crabgrass, Large plant response rating", "setting": "[10]", "value": 30}]}, {"smiles": "CCOC(=O)c1ccc(F)c(NC(=O)C2CC(C(C)(C)C)=NN2CC)c1", "note": "(stereo not drawn) [Compound 267, ethyl 3-[[[3-(1,1-dimethylethyl)-1-ethyl-4,5-dihydro-1H-pyrazol-5-yl]carbonyl]amino]-4-fluorobenzoate]", "values": [{"measurement": "pest or weed control at 500 g/ha", "setting": "[8]", "value": 45, "unit": "%"}, {"measurement": "pest or weed control at 2000 g/ha", "setting": "[5]", "value": 75, "unit": "%"}, {"measurement": "pest or weed control at 2000 g/ha", "setting": "[9]", "value": 90, "unit": "%"}, {"measurement": "pest or weed control at 500 g/ha", "setting": "pre-emergence, preemergence, 500 g ai/ha, visual injury, 0 to 100 scale (0 no effect, 100 complete control), read-out: Crabgrass, Large plant response rating", "value": 15, "unit": "%"}]}, {"smiles": "CCn1nc(C(C)(C)C)cc1C(=O)Nc1cccc(OC(C)C)c1", "note": "[Compound 273]", "values": [{"measurement": "Crabgrass, Large plant response rating", "setting": "[1]", "value": 25}, {"measurement": "Plant response rating, Crabgrass, Large", "setting": "[2]", "value": 65}, {"measurement": "Crabgrass, Large plant response rating", "setting": "[7]", "value": 100}, {"measurement": "Crabgrass, Large plant response rating", "setting": "[10]", "value": 75}]}, {"smiles": "CCn1nc(C(C)(C)C)cc1C(=O)Nc1cccc(C(=O)N2CC=CC2)c1", "note": "[Compound 286]", "values": [{"measurement": "Crabgrass, Large plant response rating", "setting": "[1]", "value": 20}, {"measurement": "Plant response rating, Crabgrass, Large", "setting": "[2]", "value": 25}, {"measurement": "Crabgrass, Large plant response rating", "setting": "[7]", "value": 70}, {"measurement": "Crabgrass, Large plant response rating", "setting": "[10]", "value": 15}]}, {"smiles": "CCn1nc(C(C)(C)C)cc1C(=O)Nc1cncc(C(=O)N(C)C)n1", "note": "[Compound 287]", "values": [{"measurement": "Crabgrass, Large plant response rating", "setting": "[1]", "value": 10}, {"measurement": "Plant response rating, Crabgrass, Large", "setting": "[2]", "value": 60}, {"measurement": "Crabgrass, Large plant response rating", "setting": "[7]", "value": 100}, {"measurement": "Crabgrass, Large plant response rating", "setting": "[10]", "value": 75}]}]}
